The values below come from patent US8778937B2, “Benzimidazole boronic acid derivatives as PI3 kinase inhibitors” (GlaxoSmithKline LLC, priority 2011, dated 2014).

The test relates to MDA-MB-468. The experiment in a line: Cell growth inhibition in PTEN-deficient cell line MDA-MB-468, anchorage independent, Alamar Blue. Type of test: cell-based. The note with it: Homo sapiens, 144 h, MDA-MB-468, anchorage independent (soft agar), 6 days incubation, read-out: Prolif EC50 (nM) MDA-MB-468. The method, then: Cellular Assays—Cell Growth Inhibition in PTEN-Deficient Cell Line MDA-MB-468
PTEN deficient tumor cell lines (MDA-MB-468) were cultured generally according to instructions supplied by cell culture supplier American Type Culture Collection, Manassas, Va., with 10% fetal bovine serum at 5% CO2 and 37° C. Cells were seeded into either a T-75 or a T-175 flask 3-4 days prior to 96-well assay plating such that the flasks were approximately 70-80% confluent of the time of harvest. Cells were harvested using 0.25% trypsin-EDTA (Invitrogen #25200056). Trypan Blue exclusion staining was used to determine cell number.
Viable cells were plated in clear, flat bottom 96-well plates (BD #353075) under anchorage independent conditions at 2,000-10,000 cells per well depending on the cell line. To generate anchorage independent growth conditions, a 5% agar stock solution in water was made and autoclaved to melt and sterilize. From the 5% agar solution, a 0.6% agar/media+10% fetal bovine serum (FBS) solution was made to generate a bottom agar layer in the plates to prevent cell attachment. Seventy five microliters per well of the 0.6% agar-media solution was added to the plates. After solidification, a cell solution of 266,870 to 1,334,022 cells (depending on the cell line) in 10 ml of 0.3% agar/media+10% FBS was made and 75 μl of the cell/media/agar suspension was added to the plates. After the cell layer solidified, 50 μl of media+10% FBS was added to the top of the cells. A 0.3% Brij 35 (Sigma B4184) solution in media+10% FBS was added to column 12 as a background subtraction control. The cells were incubated overnight at 5% CO2 and 37° C. The next day one plate of cells was processed at the time of compound addition to quantify the starting number of cells (T=0 or T0).
To generate the compound titration plates, 15 μl of a 2 mM or 20 μl of a 20 mM solution of the compound of example 31 was diluted in clear bottom polypropylene 96-well plate (BD #351190) using a 10 point, 3-fold titration or a 20 point 2-fold titration, respectively. Three hundred microliters of media was added to the compound dilutions. Ten microliters per well of the serial dilutions was added to the cells and the plates incubated for 6 days at 5% CO2 and 37° C. The final concentration of DMSO in all wells was 0.15% and the highest final concentration of the compound of example 31 was 3.7 μM or 30.7 μM.
Following the 6-day incubation, 20 μl of Alamar Blue (Invitrogen #DAL1100) was added to the cells, incubated at 5% CO2 and 37° C. for 6 hours and the plates read on a Spectramax (Gemini EM) at 530 nm (excitation) and 590 nm (emission) with the auto cut-off disabled. For analysis of cell growth inhibition dose response curves, the data was plotted as the percent of the DMSO-treated control samples (DMSO samples set to 100%). The cellular response was determined for compounds and control compounds by fitting the concentration response with a 4 parameter curve fit using XLfit software and determining the concentration that inhibits 50% of the Ymax-Ymin window (EC50). The EC50 is the midpoint of active compound effect window (between Ymax plateau and Ymin plateau of compound) and represents the concentration of the compound of example 31 where 50% of its maximal effect is observed. Values from wells containing 0.3% Brij 35 (under anchorage independent conditions) were subtracted from all samples for background correction.
The compounds listed in Table 3 were tested generally according to the assays described herein. Table 3 lists the EC50 values for either an experimental run or an average of two or more experimental runs with the examples shown.
Turning to `Cc1nc2c(B(O)O)cc(N3CCOCC3)cc2n1Cc1cccc2ccccc12` [Example 6, (2-methyl-6-morpholino-1-(naphthalen-1-ylmethyl)-1H-benzo[d]imidazol-4-yl)boronic acid], the EC50 stood at 22.3 nM.
Take `Cc1c(Cl)cccc1Cn1c(CF)nc2c(B(O)O)cc(N3CCOCC3)cc21` [Example 17, (1-(3-chloro-2-methylbenzyl)-2-(fluoromethyl)-6-morpholino-1H-benzo[d]imidazol-4-yl)boronic acid]: the 50% effective concentration (EC50) was found to be 17.8 nM.
As for `Cc1c(Cl)cccc1Cn1c(C(F)F)nc2c(B(O)O)cc(N3CCOCC3)cc21` [Example 19, (1-(3-chloro-2-methylbenzyl)-2-(difluoromethyl)-6-morpholino-1H-benzo[d]imidazol-4-yl)boronic acid], the figure is 31.5 nM; as for `Cc1nc2c(B(O)O)cc(N3CCOCC3)cc2n1Cc1cccc(Cl)c1` [Example 13, (1-(3-chlorobenzyl)-2-methyl-6-morpholino-1H-benzo[d]imidazol-4-yl)boronic acid], 246 nM.
Consider `Cc1c(Cn2c(C)nc3c(B(O)O)cc(N4CCOCC4)cc32)cccc1C(F)(F)F` [Example 4, (2-methyl-1-(2-methyl-3-(trifluoromethyl)benzyl)-6-morpholino-1H-benzo[d]imidazol-4-yl)boronic acid], for which the concentration giving a half-maximal response (EC50) was determined as 11.1 nM.
Under `Cc1c(Cl)cccc1Cn1c(C)nc2c(B(O)O)cc(N3CCOCC3)cc21` [Example 5, (1-(3-chloro-2-methylbenzyl)-2-methyl-6-morpholino-1H-benzo[d]imidazol-4-yl)boronic acid] stands 6.7 nM; under `Cc1c(Cn2c(CF)nc3c(B(O)O)cc(N4CCOCC4)cc32)cccc1C(F)(F)F` [Example 16, (2-(fluoromethyl)-1-(2-methyl-3-(trifluoromethyl)benzyl)-6-morpholino-1H-benzo[d]imidazol-4-yl)boronic acid], 21.5 nM.
Consider `Cc1c(Cl)cccc1Cn1cnc2c(B(O)O)cc(N3CCOCC3)cc21` [Example 15, (1-(3-chloro-2-methylbenzyl)-6-morpholino-1H-benzo[d]imidazol-4-yl)boronic acid], for which the half-maximal effective concentration (EC50) turned out to be 60 nM.
Under `Cc1ccccc1Cn1c(C)nc2c(B(O)O)cc(N3CCOCC3)cc21` [Example 11, (2-methyl-1-(2-methylbenzyl)-6-morpholino-1H-benzo[d]imidazol-4-yl)boronic acid] stands 1140 nM; under `Cc1nc2c(B(O)O)cc(N3CCOCC3)cc2n1Cc1cccc(Cl)c1Cl` [Example 8, (1-(2,3-dichlorobenzyl)-2-methyl-6-morpholino-1H-benzo[d]imidazol-4-yl)boronic acid], 42 nM.
In the case of `Cc1cccc(Cn2c(C)nc3c(B(O)O)cc(N4CCOCC4)cc32)c1C` [Example 7, (1-(2,3-dimethylbenzyl)-2-methyl-6-morpholino-1H-benzo[d]imidazol-4-yl)boronic acid], the EC50 came to 18.3 nM.
As for `Cc1c(Cn2c(C(F)F)nc3c(B(O)O)cc(N4CCOCC4)cc32)cccc1C(F)(F)F` [Example 20, (2-(difluoromethyl)-1-(2-methyl-3-(trifluoromethyl)benzyl)-6-morpholino-1H-benzo[d]imidazol-4-yl)boronic acid], the figure is 39.8 nM; as for `Cc1c(Cn2c(CO)nc3c(B(O)O)cc(N4CCOCC4)cc32)cccc1C(F)(F)F` [Example 18, (2-(hydroxymethyl)-1-(2-methyl-3-(trifluoromethyl)benzyl)-6-morpholino-1H-benzo[d]imidazol-4-yl)boronic acid], 13.5 nM; as for `Cc1c(Cn2cnc3c(B(O)O)cc(N4CCOCC4)cc32)cccc1C(F)(F)F` [Example 14, (1-(2-methyl-3-(trifluoromethyl)benzyl)-6-morpholino-1H-benzo[d]imidazol-4-yl)boronic acid], 62.8 nM.
Regarding `Cc1c(Cl)cccc1Cn1c(C(F)(F)F)nc2c(B(O)O)cc(N3CCOCC3)cc21` [Example 21, (1-(3-chloro-2-methylbenzyl)-6-morpholino-2-(trifluoromethyl)-1H-benzo[d]imidazol-4-yl)boronic acid], the 50% effective concentration (EC50) stood at 130 nM.
For the molecule `Cc1nc2c(B(O)O)cc(N3CCOCC3)cc2n1Cc1cccc2ccsc12` [Example 9], the concentration for a half-maximal effect (EC50) worked out at 88.2 nM.
Take `Cc1c(Cn2c(C(C)C)nc3c(B(O)O)cc(N4CCOCC4)cc32)cccc1C(F)(F)F` [Example 22, (2-isopropyl-1-(2-methyl-3-(trifluoromethyl)benzyl)-6-morpholino-1H-benzo[d]imidazol-4-yl)boronic acid]: the EC50 worked out at 161 nM.
Regarding `Cc1c(Cn2c(C3CC3)nc3c(B(O)O)cc(N4CCOCC4)cc32)cccc1C(F)(F)F` [Example 23, (2-cyclopropyl-1-(2-methyl-3-(trifluoromethyl)benzyl)-6-morpholino-1H-benzo[d]imidazol-4-yl)boronic acid], the EC50 turned out to be 126 nM.
As for `Cc1cccc(Cn2c(C)nc3c(B(O)O)cc(N4CCOCC4)cc32)c1` [Example 10, (2-methyl-1-(3-methylbenzyl)-6-morpholino-1H-benzo[d]imidazol-4-yl)boronic acid], the figure is 1880 nM; as for `Cc1nc2c(B(O)O)cc(N3CCOCC3)cc2n1Cc1ccccc1Cl` [Example 12, (1-(2-chlorobenzyl)-2-methyl-6-morpholino-1H-benzo[d]imidazol-4-yl)boronic acid], 3580 nM.
